Assay results published in patent US20110312898A1, “PROPHYLACTIC / THERAPEUTIC AGENT FOR CANCER” (Takeda Pharmaceutical Company Limited, priority 2008, published 2011).
Square brackets hold non-standard residues; d marks the D form. Arg(Me) = CNC(=N)NCCC[C@H](N)C(=O)O; Hyp = O=C(O)[C@@H]1C[C@@H](O)CN1; azaGly = NNC(=O)O

Key:
DU145 = experiment: Antitumor activity in DU145 tumor-bearing male rat model; format: in vivo; conditions: microcapsule powder s.c. 10, 30 and 60 days after transplantation; No. 550 10 mg/kg, No. 723 1 or 10 mg/kg; 74 days after transplantation; vs surgically castrated group
Protocol: Evaluation of antitumor activity of the metastin peptide derivative in DU145 tumor-bearing male rat model
Antitumor activity of Compound No. 550 and Compound No. 723 against a DU145 tumor-bearing male rat model was evaluated. Specifically, 1×10^6 cells/100 μL suspension of DU145 (androgen-independent cell line, GPR54 highly expressing cell line, ATCC) was mixed with 100 μL of basement membrane matrix: Matrigel (trade name, BD Biosciences), and the obtained mixture was transplanted under the abdominal skin of 7-week-old F344/NJc1-rnu/rnu male rats (CLEA Japan, Inc.) which had been etherized. 10 days after the transplantation, the rats in which the volume of subcutaneous tumor reached 200 mm^3 were divided into 4 groups (Groups A-D, 10 rats for each group). […]
Regarding Group D, the rats were surgically castrated and used as the negative control group. […] 74 days after the transplantation of DU145 cells, the tumor volume (longer diameter×shorter diameter×shorter diameter/2) was measured. […]

Dunning R3327-G cells = experiment: Androgen-independent antitumor effects, Dunning R3327-G cells implanted in orchiectomized Copenhagen rats; format: in vivo, rat; conditions: 50 nmol/kg/W, subcutaneous ALZET pump; day 52 following the start of dosing; compared with solvent group
Source text: Dunning R3327-G cells, an androgen-sensitive rat prostate cancer cell line, were implanted into orchiectomized Copenhagen rats, and the androgen-independent antitumor effects by Compound No. 550 and Compound No. 723 were investigated.
R3327-G cells (7×10^6) were implanted subcutaneously in 10-week-old orchiectomized male Copenhagen rats. Fifty days after implantation, the rats were divided into groups based on the tumor volume, and were then assigned to a Compound 550—50 nmol/kg/W group, a Compound No. 723—50 nmol/kg/W group, and a solution group (each group consisting of 10 animals). The dose was calculated based on the mean weight of the animals on the day that dosing was begun. Administration was carried out by subcutaneous implantation in the dorsal region using an ALZET pump. The tumor diameter was measured on days 50, 65, 71, 78, 91 and 102 following cell implantation (days 0, 15, 21, 28, 41 and 52 following the start of dosing). The tumor volume (mm^3) was calculated as follows: major axis×minor axis^2÷2. Owing to deaths and the euthanization of animals in the course of the tests, on day 52 following the start of dosing (day 102 after transplantation), only six animals remained in the solution group and only seven animals remained in the Compound No. 723 group.

[1] = system: human prostate cancer cell line 22Rv1; experiment: Growth-inhibitory activity on 22Rv1 spheroids (CellTiter-Glo); format: cell-based; conditions: 10% DCC-FCS
Protocol: Evaluation of the growth-inhibitory activity of the metastin peptide derivative using human prostate cancer cell line 22Rv1
Regarding Compound No. 723, the growth-inhibitory activity on androgen-independent human prostate cancer cell line 22Rv1 (CRL-2505, American Type Culture Collection) was evaluated. […] in the state of three-dimensional culture (spheroid) was used in the evaluation. Specifically, 22Rv1 cells were suspended in a RPMI1640 medium (Ref. No. 22400, Invitrogen) containing 10% FCS (Cat. No. 171012, Cell Culture Bioscience) to set the concentration to 1.5×10^6 cells/mL. The obtained suspension was spotted on a cover of a tissue culture dish (Ref. No. 353003, FALCON) (20 μL for each) to perform Hanging drop culture ([…]). In order to prevent drying, 10 mL of DPBS (Ref. No. 14190, Invitrogen) was added to the culture dish. […]
(§1) Cell growth was quantified 9 days after the start of the treatment with Compound No. 723 by measuring the chemical luminescence evoked by cellular ATP using CellTiter-Glo Luminescent Cell Viability Assay (Promega). Wallac 1420 ARVO MX/Light (Parkin Elmer) was used for the measurement of the luminescence intensity.

[2] = system: human prostate cancer cell line VCaP; experiment: Growth-inhibitory activity on VCaP spheroids (CellTiter-Glo); format: cell-based; conditions: 10% DCC-FCS
Protocol: Evaluation of the growth-inhibitory activity of the metastin peptide derivative using human prostate cancer cell line VCaP
Regarding Compound No. 723, the inhibitory activity on androgen-independent growth of human prostate cancer cell line VCaP (CRL-2876, American Type Culture Collection) was evaluated. […] in the state of three-dimensional culture (spheroid) was used in the evaluation. Specifically, VCaP cells were suspended in a DMEM medium (Ref. No. 11995, Invitrogen) containing 10% FCS (Cat. No. 171012, Cell Culture Bioscience) to set the concentration to 1.5×10^6 cells/mL. The obtained suspension was spotted on a cover of a tissue culture dish (Ref. No. 353003, FALCON) (20 μL for each) to perform Hanging drop culture (3×10^4 cells/drop). In order to prevent drying, 10 mL of DPBS (Ref. No. 14190, Invitrogen) was added to the culture dish. […]
as §1

Substance | antitumor effects (tumor volume) (DU145) | antitumor effects (tumor volume) (Dunning R3327-G cells) | Luminescence intensity ([1]; 1 μM supplied every 12 hours for 8 days, 9 days after start of treatment, cellular ATP, n = 18, Control 483469 ± 55917) | growth of androgen-independent human prostate cancer cells (22Rv1) in the absence of androgen ([1]; 1 μM, vs control) | Luminescence intensity ([2]; 1 μM supplied every 12 hours for 8 days, 9 days after start of treatment, cellular ATP, n = 18, Control 564458 ± 27628) | androgen-independent growth of human prostate cancer cells (VCaP) ([2]; 1 μM, vs control)
Ac-[dY][dW]NTF[azaGly]L[Arg(Me)]W-NH2 [Compound No. 550] | antitumor effects more than the surgical castration | significant antitumor effects |  |  |  | 
Ac-D-Tyr-Hyp-Asn-Thr-Phe-AzaGly-Leu-Arg(Me)-Trp-NH2 (Ac-[dY][Hyp]NTF[azaGly]L[Arg(Me)]W-NH2) [Compound No. 723] | antitumor effects more than the surgical castration | significant antitumor effects | 401291 ± 40565 | significantly reduced the growth | 507191 ± 73146 | significantly reduced the androgen-independent growth
